US12576099B2, “Ribose-modified cap analog and use thereof” (Beijing Youcare Kechuang Pharmaceutical Technology Co., Ltd., priority 2024, dated 2026)

Experiments:
T7 RNA polymerase [1] = biological target: T1, T7 RNA polymerase (Escherichia phage T7, UniProt P00573); test: In vitro transcription yield of mRNA using cap analogs; type: biochemical; conditions: for Yield per unit template: in vitro transcription, 1 μg DNA template, 37° C., 2 hours
Procedure: • (1) Capping synthesis using cap analogs
The plasmid was first linearized with plasmid linearizing enzyme, and then the linearized plasmid was purified. • (2) In vitro transcription and synthesis of mRNA
(§1) During the experiment, the volume of materials required for the system was first calculated, and then sample addition was conducted. The system was first added with sterile enzyme-free water, followed by the sequential addition of 10× buffer, NTPs, and cap analogs, mixed well, and gently centrifuged. Nuclease inhibitors, inorganic pyrophosphatase, T7RNA polymerase, and linearized DNA templates were then added thereto. The system was mixed well, gently centrifuged, and incubated at 37° C. After 2 hours of incubation, the system was added with 1 U of DNase I and incubated at 37° C. for another 30 minutes. The mRNA precipitate was then washed with 75% ethanol, and after the ethanol was briefly evaporated to dryness, the mRNA was redissolved in sterile enzyme-free water. • (3) The transcription product was purified, and the in vitro transcription yield of mRNA was recorded. • (4) The obtained mRNA was subjected to an annealing reaction with a probe.

HEK293T cells = test: Translation efficiency of different capped luciferase mRNAs; type: cell-based; conditions: for Relative fluorescence intensity: HEK293T, 0.5 μg mRNA per well, 24 hours, proportional to translation efficiency; for Multiple of m6A (relative fluorescence intensity): relative to m6A
Procedure: • (1) HEK293T cells were cultured in DMEM medium containing 10% FBS and penicillin/streptomycin at 37° C. with 5% CO2. • (2)Cells in the culture dish were digested and counted, then spread in a 96-well plate at 10,000 cells per well, and cultured overnight until the cells adhered to the wall. • (3) When the cell density reached approximately 80%, transfection was performed by adding 0.5 μg of mRNA sample and Lipofectamine MessengerMAX Transfection Reagent (Invitrogen) per well according to the manufacturer's instructions. • (4) After the transfected cells were cultured at 37° C. with 5% CO2 for 24 hours, the growth medium was removed from the cells to be tested, and the cells were rinsed with PBS. After centrifugation to remove PBS, 50 μL of 1× lysis buffer was added. The cells and all liquid were transferred to a microcentrifuge tube and centrifuged. • (5) 20 μL of sample was taken and added to 100 μL of Dual-Lumi™ II Luciferase Assay Reagent pre-equilibrated to room temperature, and mixed appropriately. • (6) The mixture was incubated at room temperature (approximately 25° C.) for 5 minutes to stabilize the luminescence signal. Chemiluminescence was detected using a multifunctional microplate reader with a function for detecting chemiluminescence, and the data were recorded.
The relative fluorescence intensity is proportional to the translation efficiency of mRNA.

T7 RNA polymerase [2] = biological target: T1, T7 RNA polymerase; test: Capping rate of mRNA transcription initiated by cap analogs (LC-MS); type: biochemical; conditions: for Capping rate: LC-MS of mRNA 5′ fragment
Procedure: as §1
The annealing reaction was performed in a PCR instrument: 95° C. for 5 minutes; 65° C. for 2 minutes; 55° C. for 2 minutes; 40° C. for 2 minutes; 22° C. for 2 minutes. • (5) Magnetic bead pretreatment and probe binding: 100 μL of magnetic beads was placed on a magnetic frame for pretreatment. The magnetic bead solution was added with 120 μL of sample and incubated at room temperature for 30 minutes with slow mixing. • (6) mRNA splicing and obtaining the mRNA 5′ single-strand sequence bound to the probe
The mixture was added with 20 μL of RNase H (5 U/μL) and incubated at 37° C. for 3 hours with mixing every half hour. After incubation, the magnetic beads were washed and then added with 100 μL of 75% methanol heated to 80° C. The mixture was heated to 80° C. on a heating plate, held for 3 minutes, then placed on a magnetic frame to aspirate the supernatant, and dried at room temperature for 45 minutes to a volume of 10 μL using a centrifugal evaporator. The sample was then resuspended in 50 μL of 100 μM EDTA/1% MeOH and ready for LC-MS analysis to determine the capping of RNA in the transcription reaction. Since there is a significant difference in molecular weight between capped and uncapped bases, the capping rate of mRNA transcription initiated by different cap analogs can be determined based on the difference in molecular mass.

DCP2 enzyme = biological target: T2, DCP2 enzyme (Schizosaccharomyces pombe, UniProt O13828); test: Decapping enzyme stability test; type: biochemical; conditions: for Decapping rate (%) of DCP2 enzyme: 50 U mRNA decapping enzyme, 37° C., 45 minutes; for Decapping rate lower than that of HN3002: relative to HN3002; for Decapping rate lower than that of YK-CAP-101: relative to YK-CAP-101; for Decapping rate lower than that of YK-CAP-102: relative to YK-CAP-102; for Decapping rate lower than that of YK-CAP-103: relative to YK-CAP-103; for Decapping rate lower than that of YK-CAP-104: relative to YK-CAP-104; for Decapping rate lower than that of YK-CAP-105: relative to YK-CAP-105; for Decapping rate lower than that of compound 14: relative to compound 14; for Decapping rate lower than that of m6A: relative to m6A
T2 construct: purchased New England Biolabs
T2 sequence (O13828 1-243 limits assumed): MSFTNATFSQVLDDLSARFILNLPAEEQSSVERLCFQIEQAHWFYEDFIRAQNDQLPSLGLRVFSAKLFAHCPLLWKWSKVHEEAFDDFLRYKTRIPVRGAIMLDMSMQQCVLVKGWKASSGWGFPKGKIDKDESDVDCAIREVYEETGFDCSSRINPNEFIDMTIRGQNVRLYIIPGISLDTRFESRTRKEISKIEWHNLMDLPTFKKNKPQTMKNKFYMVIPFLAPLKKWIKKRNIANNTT
T2 sequence (Q9P805 1-127 partner): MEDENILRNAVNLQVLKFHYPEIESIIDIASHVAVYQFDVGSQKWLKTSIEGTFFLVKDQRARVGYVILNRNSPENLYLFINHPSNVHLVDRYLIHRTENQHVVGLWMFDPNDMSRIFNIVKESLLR
T2 sequence (Q10108 155-180 partner limits assumed): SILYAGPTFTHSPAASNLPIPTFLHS
Procedure: […] of RNA purified by polyacrylamide gel electrophoresis (PAGE) was subjected to an enzymatic reaction with 50 U of mRNA decapping enzyme (New England Biolabs) and 1×MDE buffer at 37° C. for 45 minutes. The enzymatic reactants were subjected to PAGE and stained with SYBR Green II (Lonza), followed by observation of the post-electrophoresis gel image on a Typhoon FLA 7000 (GE Healthcare) instrument. The electrophoresis band intensity ratio of RNA capping to RNA decapping was counted using ImageQuant (GE Healthcare) software, and the decapping rate of the decapping enzyme was calculated.

T1 sequence (P00573 whole entry): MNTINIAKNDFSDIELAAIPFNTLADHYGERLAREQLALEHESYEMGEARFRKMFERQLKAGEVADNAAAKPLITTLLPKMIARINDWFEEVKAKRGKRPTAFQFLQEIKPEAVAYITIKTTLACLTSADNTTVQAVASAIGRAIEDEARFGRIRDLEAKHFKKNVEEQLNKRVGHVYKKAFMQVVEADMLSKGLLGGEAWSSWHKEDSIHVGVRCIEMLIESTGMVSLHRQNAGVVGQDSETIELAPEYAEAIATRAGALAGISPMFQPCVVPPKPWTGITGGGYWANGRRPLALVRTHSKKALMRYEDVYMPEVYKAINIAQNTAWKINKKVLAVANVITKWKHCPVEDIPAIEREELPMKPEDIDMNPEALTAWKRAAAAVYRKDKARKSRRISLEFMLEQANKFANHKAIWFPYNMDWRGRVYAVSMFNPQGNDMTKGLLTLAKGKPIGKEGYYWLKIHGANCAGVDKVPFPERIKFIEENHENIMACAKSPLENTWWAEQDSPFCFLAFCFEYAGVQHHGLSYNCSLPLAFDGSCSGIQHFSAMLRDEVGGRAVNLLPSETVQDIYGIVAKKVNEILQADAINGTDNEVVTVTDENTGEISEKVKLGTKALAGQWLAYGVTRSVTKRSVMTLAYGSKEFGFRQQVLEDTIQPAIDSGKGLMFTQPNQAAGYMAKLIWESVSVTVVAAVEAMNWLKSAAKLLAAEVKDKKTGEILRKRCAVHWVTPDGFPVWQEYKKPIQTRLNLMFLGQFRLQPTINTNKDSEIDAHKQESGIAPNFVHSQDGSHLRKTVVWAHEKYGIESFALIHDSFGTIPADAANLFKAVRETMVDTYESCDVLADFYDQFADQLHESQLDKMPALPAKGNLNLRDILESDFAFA

| Compound | Yield per unit template (T7 RNA polymerase [1]) [µg] | Increase relative to 5227 (in vitro transcription yield) (T7 RNA polymerase [1]) [%] | Relative fluorescence intensity (HEK293T cells) | Multiple of m6A (relative fluorescence intensity) (HEK293T cells) | Capping rate (T7 RNA polymerase [2]) [%] | Increase relative to 5227 (capping rate) (T7 RNA polymerase [2]) [%] | Decapping rate (%) of DCP2 enzyme (DCP2 enzyme) [%] | Decapping rate lower than that of HN3002 (DCP2 enzyme) [%] | Decrease relative to N-7113 (decapping rate) (DCP2 enzyme) [%] | Decapping rate lower than that of YK-CAP-101 (DCP2 enzyme) [%] | Decapping rate lower than that of YK-CAP-102 (DCP2 enzyme) [%] | Decapping rate lower than that of YK-CAP-103 (DCP2 enzyme) [%] | Decapping rate lower than that of YK-CAP-104 (DCP2 enzyme) [%] | Decapping rate lower than that of YK-CAP-105 (DCP2 enzyme) [%] | Decapping rate lower than that of compound 14 (DCP2 enzyme) [%] | Decapping rate lower than that of m6A (DCP2 enzyme) [%] | further results |
| --- | --- | --- | --- | --- | --- | --- | --- | --- | --- | --- | --- | --- | --- | --- | --- | --- | --- |
| COC[C@]1(COP(=O)(O)OP(=O)(O)OP(=O)(O)OC[C@H]2O[C@@H](n3cnc4c(N)ncnc43)[C@H](OC)[C@@H]2OP(=O)(O)OC[C@H]2O[C@@H](n3cnc4c(=O)[nH]c(N)nc43)[C@H](O)[C@@H]2O)O[C@@H]([n+]2cn(C)c3c(=O)[nH]c(N)nc32)[C@H](O)[C@@H]1O [YK-CAP-117] | 153.2 | 14.2 | 1.82 | 4.8 | 95.1 | 32.3 | 9.8 | 13.5 | 34.0 | 22.6 | 31.4 | 26.7 | 36.3 | 24.1 | 17.0 | 24.0 |  |
| CO[C@@H]1[C@H](OP(=O)(O)OC[C@H]2O[C@@H](n3cnc4c(=O)[nH]c(N)nc43)[C@H](O)[C@@H]2O)[C@@H](COP(=O)(O)OP(=O)(O)OP(=O)(O)OC[C@H]2OC([n+]3cn(C)c4c(=O)[nH]c(N)nc43)[C@H](O)[C@@H](O)[C@@H]2O)O[C@H]1n1cnc2c(N)ncnc21 (some centres unmarked) [YK-CAP-101] | 32.5 | −75.8 | 0.22 | 0.6 | 42.8 | −40.5 | 32.4 |  | 11.4 |  |  |  |  |  |  |  |  |
| CO[C@@H]1[C@H](OP(=O)(O)OC[C@H]2O[C@@H](n3cnc4c(=O)[nH]c(N)nc43)[C@H](O)[C@@H]2O)[C@@H](COP(=O)(O)OP(=O)(O)OP(=O)(O)OC[C@@]2(C(F)F)O[C@@H]([n+]3cn(C)c4c(=O)[nH]c(N)nc43)[C@H](O)[C@@H]2O)O[C@H]1n1cnc2c(N)ncnc21 [YK-CAP-119] | 154.2 | 14.9 | 1.45 | 3.8 | 96.3 | 33.9 | 11.4 |  | 32.4 |  |  |  |  |  |  |  |  |
| CO[C@@H]1[C@H](OP(=O)(O)OC[C@H]2O[C@@H](n3cnc4c(=O)[nH]c(N)nc43)[C@H](O)[C@@H]2O)[C@@H](COP(=O)(O)OP(=O)(O)OP(=O)(O)OC[C@H]2O[C@@H]([n+]3cn(C)c4c(=O)[nH]c(N)nc43)[C@H](O)[C@@H]2C(F)F)O[C@H]1n1cnc2c(N)ncnc21 [YK-CAP-110] | 172.1 | 28.2 | 1.95 | 5.1 | 97.4 | 35.5 | 10.2 | 13.1 | 33.6 | 22.2 | 31.0 | 26.3 | 35.9 | 23.7 | 16.6 | 23.6 | Relative fluorescence intensity, times that of HN3002 (HEK293T cells; relative to HN3002): 1.7 times; Relative fluorescence intensity, times that of N-7113 (HEK293T cells; relative to N-7113): 1.9 times; Relative fluorescence intensity (translation efficiency), times that of YK-CAP-101 (HEK293T cells; relative to YK-CAP-101): 8.9 times; Relative fluorescence intensity, times that of YK-CAP-102 (HEK293T cells; relative to YK-CAP-102): 5.7 times; Relative fluorescence intensity, times that of YK-CAP-103 (HEK293T cells; relative to YK-CAP-103): 2.5 times; Relative fluorescence intensity, times that of YK-CAP-104 (HEK293T cells; relative to YK-CAP-104): 2.4 times; Relative fluorescence intensity, times that of YK-CAP-105 (HEK293T cells; relative to YK-CAP-105): 2.7 times; Relative fluorescence intensity, times that of compound 14 (HEK293T cells; relative to compound 14): 1.7 times |
